Assay results as given in US20090060984A1, “ANIONIC SURFACTANTS LETHAL TO GRAM-POSITIVE BACTERIA” (priority 2007, published 2009).
Several values for one entry are separate records, joined by “and”; a condition that tells them apart may be missing. Identical values can stand only once. Like-named read-outs stand apart in the source and are kept apart here.

Tests used:
S. aureus = settings: 24 h contact time
Description: PU formulated at a TDI: PPG mole ratio of 1.5:1 are post treated with water.

[1] = system: Escherichia coli ATCC 11229; settings: for E. coli on sprayed household surfaces: metal plate, wall paper, vinyl tile, 0.06% silver solution
Description: The antimicrobial activities of the coatings on coupons and slides are tested against both Gram-positive (Staphylococcus aureus ATCC 6538) and Gram-negative (Escherichia coli ATCC 11229) bacteria. The following set of steps are executed over a four day period, in order to evaluate the coatings for antimicrobial activity.
(1) Three colonies are picked from a Petri dish that contains refrigerator stock of E. coli and S. aureus. Each of the colonies is placed into a separate test tube of 5 mL of TSB (tryptic soy broth); (2) the TSB cultures are incubated in a heated shaker; the culture is grown overnight at 37° C. while shaking at 175 rpm.
(1) 500 μL (0.5 mL) of FINAL E. coli bacteria are placed onto the center of each sterilized coating (24 hour); the same is done with S. aureus; (2) the coupons/coatings are stored for 24 hours in sealed pan by stacking Petri dishes on top of one another; (3) 200 mL of sterile water is added to the bottom of each pan; each pan is enclosed with clear saran wrap and aluminum foil; the Pyrex pans containing the coatings are incubated at room temperature for 24 hours; all inoculations of the coatings are performed in the same laminar flow hood as where the sterilized slides are placed into sterile Petri dishes; the prepared bacterial suspension (0.5 ml) is directly pipetted onto the coating of the slide; the spreading of the innoculum across the surface of the coating is observed and noted.
(1) 500 μL (0.5 mL) of FINAL E. coli bacteria is placed onto the center of each sterilized coating (0 hour); the same is done with S. aureus; (2) after bacteria are added to the 0 hour coatings, each Petri dish (containing the coating) is submerged with 25 mL of PBS; this immersion stops the viable bacteria from continuing to grow; (3) 100 μL of fluid is removed from coatings dish and placed in the middle of a previously labeled TSA plate; this is done to both agar plates labeled with −1 concentration; before removing the fluid, the surface of the coupon is scratched with a sterile loop to activate movement of bacteria; (4) “hockey sticks” are sterilized with ethanol and flame, to spread solution thoroughly; (5) the concentration of bacteria is diluted by removing 500 μL of the fluid in the coupon dish and placing it into a test tube with 4.5 mL of PBS; this solution is diluted in duplicate by removing 100 μL of the fluid and spreading into TSA plates labeled −2; (6) sterilized “hockey sticks” are used to spread solution thoroughly; (7) 500 μL of fluid from 1st tube prepared in step 5 is removed and placed into 4.5 mL of PBS; this dilution is mixed and 100 μL is removed in duplicate and placed into two new TSA plates labeled −3; (8) sterilized “hockey sticks” are used to spread these dilutions thoroughly; (9) steps 1-8 are repeated for each of the coupons or slides.

[2] = acetate sprayed with 0.06% w/w AgAOT/isopropanol, 24 h contact time
[3] = cotton sprayed with 0.06% w/w AgAOT/isopropanol, 24 h contact time
[4] = linen sprayed with 0.06% w/w AgAOT/isopropanol, 24 h contact time
[5] = metal plate sprayed with 0.06% Ag+ AgAOT solution, 0 h contact time
[6] = metal plate sprayed with 0.06% Ag+ AgAOT solution, 24 h contact time
[7] = polyester sprayed with 0.06% w/w AgAOT/isopropanol, 24 h contact time
[8] = silk sprayed with 0.06% w/w AgAOT/isopropanol, 0 h contact time
[9] = silk sprayed with 0.24% w/w AgAOT/isopropanol, 0 h
[10] = silk sprayed with 0.24% w/w AgAOT/isopropanol, 24 h
[11] = vinyl tile sprayed with 0.06% Ag+ AgAOT solution, 0 h contact time
[12] = vinyl tile sprayed with 0.06% Ag+ AgAOT solution, 24 h contact time
[13] = wall-paper sprayed with 0.06% Ag+ AgAOT solution, 24 h contact time

CCCCC(CC)COC(=O)CC(C(=O)OCC(CC)CCCC)S(=O)(=O)[O-].[Ag+] (stereo not drawn) [AgAOT]
S. aureus growth on PU composition (S. aureus; 0.01 weight % Ag in PU composition): +
S. aureus growth on PU composition (S. aureus; 0.03 weight % Ag in PU composition): +
S. aureus growth on PU composition (S. aureus; 0.10 weight % Ag in PU composition): +
S. aureus growth on PU composition (S. aureus; 0.30 weight % Ag in PU composition): −
S. aureus growth on PU composition (S. aureus; 1.0 weight % Ag in PU composition): −
S. aureus growth on PU composition (S. aureus; 3.0 weight % Ag in PU composition): −
Silver level providing complete inhibition (S. aureus; PU composition): 0.30 % w/w silver
E. coli growth on sprayed fabrics ([1]; 0.06% Ag AgAOT/isopropanol, 24 h contact time): With the single exception of silk, complete eradication is obtained for each of the other fabrics
E. coli CFU/mL, Average ([1]; acetate sprayed with 0.06% w/w AgAOT/isopropanol, 0 h contact time): 3.08E+05 CFU/mL
E. coli CFU/mL, Average [1, 2]: 0.00E+00 CFU/mL
E. coli CFU/mL, Run #1-#4 [1, 2]: 0.00E+00 CFU/mL
E. coli CFU/mL, Average ([1]; cotton sprayed with 0.06% w/w AgAOT/isopropanol, 0 h contact time): 2.53E+05 CFU/mL
E. coli CFU/mL, Average [1, 3]: 0.00E+00 CFU/mL
E. coli CFU/mL, Run #1-#4 [1, 3]: 0.00E+00 CFU/mL
E. coli CFU/mL, Average ([1]; linen sprayed with 0.06% w/w AgAOT/isopropanol, 0 h contact time): 1.46E+05 CFU/mL
E. coli CFU/mL, Average [1, 4]: 0.00E+00 CFU/mL
E. coli CFU/mL, Run #1-#4 [1, 4]: 0.00E+00 CFU/mL
E. coli CFU/mL, Avg [1, 5]: 3.10E+05 CFU/mL
E. coli CFU/mL, Run #1-#2 [1, 5]: 3.40E+05 CFU/mL and 2.80E+05 CFU/mL
E. coli CFU/mL, Avg [1, 6]: 0.00E+00 CFU/mL
E. coli CFU/mL, Run #1-#2 [1, 6]: 0.00E+00 CFU/mL
E. coli on sprayed household surfaces ([1]; 0 h contact time (5-10 minutes)): does not significantly attenuate E. coli growth
E. coli on sprayed household surfaces ([1]; 24 h contact time): eradicated on each of the samples
E. coli CFU/mL, Average ([1]; polyester sprayed with 0.06% w/w AgAOT/isopropanol, 0 h contact time): 9.10E+04 CFU/mL
E. coli CFU/mL, Average [1, 7]: 0.00E+00 CFU/mL
E. coli CFU/mL, Run #1-#4 [1, 7]: 0.00E+00 CFU/mL
E. coli CFU/mL, Average ([1]; rayon sprayed with 0.06% w/w AgAOT/isopropanol, 0 h contact time): 2.88E+05 CFU/mL
E. coli CFU/mL, Average ([1]; rayon sprayed with 0.06% w/w AgAOT/isopropanol, 24 h contact time): 3.25E+05 CFU/mL
E. coli CFU/mL, Average [1, 8]: 2.55E+05 CFU/mL
E. coli CFU/mL, Run #1-#2 [1, 8]: 2.70E+05 CFU/mL and 2.40E+05 CFU/mL
E. coli CFU/mL, Average ([1]; silk sprayed with 0.06% w/w AgAOT/isopropanol, 24 h contact time): 2.75E+07 CFU/mL
E. coli CFU/mL, Average [1, 9]: 3.38E+05 CFU/mL
E. coli CFU/mL, Run #1-#4 [1, 9]: 3.20E+05 CFU/mL and 3.60E+05 CFU/mL and 3.10E+05 CFU/mL
E. coli CFU/mL, Average [1, 10]: 0.00E+00 CFU/mL
E. coli CFU/mL, Run #1-#4 [1, 10]: 0.00E+00 CFU/mL
E. coli CFU/mL, Avg [1, 11]: 2.60E+05 CFU/mL
E. coli CFU/mL, Run #1-#2 [1, 11]: 2.30E+05 CFU/mL and 2.90E+05 CFU/mL
E. coli CFU/mL, Avg [1, 12]: 0.00E+00 CFU/mL
E. coli CFU/mL, Run #1-#2 [1, 12]: 0.00E+00 CFU/mL
E. coli CFU/mL, Avg ([1]; wall-paper sprayed with 0.06% Ag+ AgAOT solution, 0 h contact time): 1.94E+05 CFU/mL
E. coli CFU/mL, Avg [1, 13]: 0.00E+00 CFU/mL
E. coli CFU/mL, Run #1-#2 [1, 13]: 0.00E+00 CFU/mL
